Experimental data: paper doi:10.1101/2023.11.09.566481v1 (biorxiv, 2023)
Like-named read-outs stand apart in the source and are kept apart here.

Assays:
hSirt3^102-399 [1] = target: T1, hSirt3^102-399 (Homo sapiens, UniProt Q9NTG7); experiment: biochemical; settings: read-out: % Control Steady-state
T1 sequence (Q9NTG7 102-399): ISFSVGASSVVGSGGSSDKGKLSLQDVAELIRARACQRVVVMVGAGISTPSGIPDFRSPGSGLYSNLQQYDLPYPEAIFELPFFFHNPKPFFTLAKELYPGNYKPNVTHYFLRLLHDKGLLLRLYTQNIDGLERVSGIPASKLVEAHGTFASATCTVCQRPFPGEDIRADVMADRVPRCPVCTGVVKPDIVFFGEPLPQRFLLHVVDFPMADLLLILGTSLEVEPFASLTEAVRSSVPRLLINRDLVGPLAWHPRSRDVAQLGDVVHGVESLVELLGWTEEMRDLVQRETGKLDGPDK

hSirt3^102-399 [2] = target: T1, hSirt3^102-399; experiment: biochemical; settings: read-out: % Control Non-Steady state

remaining activity at 10 µM (hSirt3^102-399 [1]): 85.9% | remaining activity at 10 µM (hSirt3^102-399 [2]): 110%
Compound: C=CCc1ccc(O)c(-c2ccc(O)c(CC=C)c2)c1 [Honokiol]
